Results as given in patent publication US20190298650A1, “FORMULATION AND COMPOSITION FOR PREVENTING AND/OR DISSOLVING BIOFILM ON THE SKIN OF A DOMESTIC ANIMAL” (Dechra Veterinary Products LLC, priority 2018, published 2019).
Values after ≈ are worked out from the molar mass of the structure shown.

Legend:
[1] = tested on: Pseudomonas spp isolates from clinical canine otitis cases (biofilm); test: Biofilm breaking assay (crystal violet OD570 on a 24 h pre-formed biofilm); type: cell-based; details: only NAC 5 mg/mL, 14 isolates
Method: One hundred Pseudomonas spp isolates from clinical canine otitis cases from the UK (96), Dubai (3) and Malta (1) were submitted to NationWide Laboratories Knutton (CAPL) for routine culture and susceptibility testing over a 12 month period. Four isolates were from two dogs with bilateral otitis. […] Isolates were then stored frozen of beads (ProLab UK) at -20° C. […] Negative control wells, in triplicate, contained 180 μL of LBB and 20 μL of distilled, sterile water. Plates were then incubated for 24 hours at 37° C. Contents of the wells were discarded prior to washing three times in phosphate buffered saline (PBS) at pH 7.2. […] 100 μL of Luria-Bertani enrichment broth (LBB) and 100 μL of sterile, distilled water for negative control. […] For the biofilm breaking assay the following dilutions where tested. The dilutions were made using a Broth (LBB). […] Plates were then incubated for another 24 hours period. Contents of the wells were discarded prior to washing three times in phosphate buffered saline (PBS) at pH 7.2. […] The contents were removed by micropipetting before plates rinsed thoroughly under running water. […] Plates were covered to prevent evaporation.

[2] = tested on: Pseudomonas spp isolates from clinical canine otitis cases; test: Biofilm prevention assay (MIC read visually, then crystal violet OD570); type: cell-based; details: 28 isolates, LBB, 24 h at 37° C., NAC alone
Source text: One hundred Pseudomonas spp isolates from clinical canine otitis cases from the UK (96), Dubai (3) and Malta (1) were submitted to NationWide Laboratories Knutton (CAPL) for routine culture and susceptibility testing over a 12 month period. Four isolates were from two dogs with bilateral otitis.
The dilutions were made using a Broth (LBB).
Contents of the wells were discarded prior to washing three times in phosphate buffered saline (PBS) at pH 7.2. […] The contents were removed by micropipetting before plates rinsed thoroughly under running water. […] Plates were covered to prevent evaporation.

CC(=O)N[C@@H](CS)C(=O)O [NAC, (2R)-2-acetamido-3-sulfanylpropanoic acid]
optical density (OD570) Max. [1]: 1.40
optical density (OD570) Mean [1]: 0.38
optical density (OD570) Median [1]: 0.26
optical density (OD570) Min. [1]: −0.03
MIC [2]: 50 mg/mL (≈ 306 mM)
